Test results as given in patent US20160282364A1, “ASSAY FOR INSULIN-DEGRADING ENZYME (IDE) INHIBITORS” (PRESIDENT AND FELLOWS OF HARVARD COLLEGE, priority 2013, published 2016).
“Also recorded” adds a separate entry of the source.

How the values were obtained:
Wild-type mice = assay: Pyruvate tolerance test (PTT); assay type: in vivo, mouse; details: vs controls
Experimental: Blood collection and plasma hormone measurements. Blood was collected in EDTA-coated tubes (BD Microtainer®) from trunk bleeding (˜500 μL) after CO2-euthanasia for all hormone assays. The plasma was immediately separated from red blood cells by centrifugation 10 min at 1800 g, aliquoted, frozen over dry ice and stored at −80° C. […] Values are reported as mean±S.E.M. Statistics were performed using a two-tail Student's t-test, and significance levels shown in the figures are *p<0.05 versus vehicle control group or **p<0.01 versus vehicle control group.
RT-PCR analysis of liver gluconeogenesis markers phosphoenolpyruvate carboxykinase (PEPCK) and glucose-6-phosphatase (G6Pase). Total RNA was isolated from liver samples (˜100 mg) using TRIzol® reagent (Invitrogen, 1 mL/100 mg sample), followed by spin-column purification (RNeasy® kit, Qiagen) and on-column DNAse treatment (Qiagen) according to the manufacturer's instructions. RNA concentrations were determined by UV spectrophotometry (NanoDrop). One microgram of total RNA was used for reverse transcription with oligo(dT) primers (SuperScript® III First-Strand Synthesis SuperMix, Life Technologies) according to the manufacturer's instructions. Quantitative PCR reactions included 1 μL of cDNA diluted 1:100, 0.4 μM primers, 2× SYBR Green PCR Master Mix (Invitrogen) in 25 μL total volume, and were read out by a CFX96TM Real-Time PCR Detection System (BioRad). Transcript levels were determined using two known primer pairs^18,19 for each gene of interest (Table 6), which were normalized against tubulin and beta-actin transcripts (ΔΔCT method), and expressed relative to the lowest sample. Duplicate control assays without reverse transcriptase treatment were run for each RNA preparation and primer set used. Statistics were performed using a two-tail Student's t-test, and significance levels shown in the figures are *p<0.05 versus vehicle control group or **p<0.01 versus vehicle control group.

C57BL/6J mice = assay: Tolerability of inhibitor doses in mice; assay type: in vivo; details: 80 mg/kg lean, 60 mg/kg DIO mice, i.p.
Source text: In vivo studies, general information. Wild-type C57BL/6J and diet-induced obese (DIO) C57BL/6J age-matched male adult mice were purchased from Jackson Laboratories. The age range was 13 to 15 weeks for lean mice, and 24 to 26 weeks for DIO mice. All animals were individually housed on a 14-h light, 10-h dark schedule at the Biology Research Infrastructure (BRI), Harvard University. Cage enrichment included cotton bedding and a red plastic hut. Water and food were available ad libitum, consisting respectively of normal chow (Prolab® RHM 3000) or high-fat diet (60 kcal % fat, D12492, Research Diets Inc.). All animal care and experimental procedures were in accordance with the standing committee on the Use of Animals in Research and Teaching at Harvard University, the guidelines and rules established by the Faculty of Arts and Sciences' Institutional Animal Care and Use Committee (IACUC), and the National Institutes of Health Guidelines for the Humane Treatment of Laboratory Animals. Glucagon-receptor knock-out (GCGR^−/−) mice were housed with a 14-h light and 10-h dark schedule and treated in accordance with the guidelines and rules approved by the IACUC at Albert Einstein College of Medicine, NY. Power analysis to determine animal cohort numbers was based on preliminary results and literature precedent, usually requiring between 5 and 8 animals per group. […]

[1] = Plasma protein binding assay; assay type: in vitro ADME

NCCCC[C@@H]1NC(=O)/C=C/C(=O)N[C@H](C(N)=O)CCCCNC(=O)[C@@H](Cc2ccc(C(=O)c3ccccc3)cc2)NC(=O)[C@H](CC2CCCCC2)NC1=O [Compound 6bK]
plasma glucagon (Wild-type mice; 60 min post-PTT, pyruvate 2.0 g/kg i.p.): significantly elevated | expression of liver gluconeogenic markers (Wild-type mice; 60 min post-PTT): increased; also recorded: elevated | plasma insulin levels (Wild-type mice; 60 min post-PTT): similar | blood glucose during the PTT (Wild-type mice; pyruvate 2.0 g/kg i.p.): significantly lower | tolerability (C57BL/6J mice): well tolerated | unbound in plasma protein binding assay [1]: ~6%
